Patent US11591316B2, “Compounds, compositions, and methods” (DENALI THERAPEUTICS INC., priority 2016, dated 2023)

Test: Metabolic stability in human liver microsomes
Assay type: in vitro ADME
Conditions: 1 μM compound, 0.5 mg/mL protein, projected hepatic clearance (well-stirred model), Table 5
Procedure: Metabolic stability of compounds was evaluated in human liver microsomes (from Corning or XenoTech, LLC) using a 96-well plate assay format. Compounds were incubated at 37° C. at 1 μM final concentration in the microsomal matrix (0.5 mg/mL total protein) in the presence or absence of NADPH cofactor. An NADPH regenerating system, comprised of NADP, MgCl2, isocitric acid, and isocitrate dehydrogenase, was used in the assay. Enzymatic reactions were conducted for 0, 5, 10, 20, 30, or 60 min before termination by addition of acetonitrile containing tolbutamide and labetalol internal standards (100 ng/mL). After shaking for 10 min, plates were subjected to centrifugation (4000 rpm at 4° C.) for 20 min and supernatants were mixed 1:3 with HPLC grade water. Samples were analyzed by LC-MS/MS using appropriate MRM transitions for each analyte and internal standard (IS). Analyte/IS peak area ratios were used to determine percent compound remaining at each time point. Intrinsic clearance (Clint; expressed as mL·min^−1·mg^−1) was calculated from the first order elimination constant (k, min^−1) of test article decay and the volume of the incubation. These values were scaled to intrinsic organ clearance (Clint) using human specific scaling factors (48.8 mg microsomal protein per g liver; 25.7 g liver per kg body weight). […]

Human liver microsomes CLhep [mL/min/kg] | SMILES
0.75 | [2H]C([2H])([2H])n1nc(C(C)(C)n2nccn2)cc1Nc1ncc(C(F)(F)F)c(NCC)n1 [Compound 34, N4-Ethyl-N2-[1-(^2H3)methyl-3-[2-(2H-1,2,3-triazol-2-yl)propan-2-yl]-1H-pyrazol-5-yl]-5-(trifluoromethyl)pyrimidine-2,4-diamine]
0 | CNc1nc(Nc2cn(C(C)(C)c3ncn(C)n3)nc2C)ncc1C(F)(F)F [Compound 218]
